For orientation: IC90 means the concentration at which the effect reaches the 90% level.

Drawing on PubChem BioAssay AID2842 (Southern Research Institute, 2010), this text covers IC90 for 36 molecules.

≈ marks a conversion by molar mass, not a printed value.

For this experiment, the system named is M. tuberculosis H37Rv growth inhibition. Description: Mycobacterium tuberculosis H37Rv growth inhibition, putative kinase inhibitor library, confirmatory dose response (AID 2842).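 Further: bacteria incubated one week before Alamar blue readout.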

For `Cc1cccc2nc(NC(=O)c3ccc(Oc4ccccc4)cc3)sc12`, the IC90 was 8.53 µg/mL (≈ 23.7 µM). The same measure for `CC(=O)c1cccc(Nc2nc(Nc3ccc(F)c(Cl)c3)nc(N3CCOCC3)n2)c1`: 8.38 µg/mL (≈ 18.9 µM); for `O=C(Nc1nnc(-c2ccccn2)o1)c1cccc(F)c1`: 3.47 µg/mL (≈ 12.2 µM).

`COc1cccc(C(=O)Nc2nnc(-c3ccc(Cl)cc3)o2)c1`: the 90% effect concentration (IC90) is less than 0.2 µg/mL. The value for `COc1ccccc1N1CCN(c2nc(Nc3ccc(C)c(C)c3)c3nccnc3n2)CC1` was 1.68 µg/mL (≈ 3.8 µM).

On to `Cc1ccc(C)c(-c2nnc(NC(=O)c3ccc(Cl)cc3Cl)o2)c1`, for which the IC90 is 2.21 µg/mL (≈ 6.1 µM).

Consider `Cc1ccc(C)c(-c2nnc(NC(=O)c3cccc4ccccc34)o2)c1`, for which the IC90 was 0.41 µg/mL (≈ 1.19 µM). The same measure for `O=C(OCn1nnc2ccccc2c1=O)C(c1ccccc1)c1ccccc1`: 8.87 µg/mL (≈ 23.9 µM). The same measure for `CCC(=O)Nc1nnc(-c2cc(Cl)ccc2Cl)o1`: 30.1 µg/mL (≈ 105 µM); for `O=C(c1ccco1)N(CCCn1ccnc1)c1nc2ccc(F)cc2s1`: 1.94 µg/mL (≈ 5.24 µM); for `CCS(=O)(=O)c1cccc(C(=O)Nc2nc3ccc(C(C)C)cc3s2)c1`: 11.3 µg/mL (≈ 29.1 µM). The value for `Cc1ccccc1C(=O)Nc1nnc(-c2ccco2)o1` was 1.69 µg/mL (≈ 6.28 µM). Regarding `CC(C)N1CCc2c(sc(NC(=O)c3cc4c(ccc5ccccc54)oc3=O)c2C(N)=O)C1`, the concentration for an effect of 90% (IC90) is 40.2 µg/mL (≈ 87 µM). In the case of `O=C(OCc1nc2ccccc2s1)c1ccc(F)cc1`, the IC90 was 15.4 µg/mL (≈ 53.5 µM).

Take `Fc1cccc2sc(Nc3nc4cc5c(cc4s3)OCO5)nc12`: the IC90 was 11.1 µg/mL (≈ 32.1 µM).

Take `Cc1ccc(C(=O)Nc2nnc(-c3ccc(C)cc3C)o2)c(C)c1`: the IC90 was 3.99 µg/mL (≈ 12.4 µM). The same measure for `CSc1cccc(-c2nnc(NC(=O)/C=C/c3cccs3)o2)c1`: 4.49 µg/mL (≈ 13.1 µM); for `Cc1ccc(C)c(-c2nnc(NC(=O)C3CC3)o2)c1`: 1.46 µg/mL (≈ 5.67 µM); for `N=c1nnc2c3ccccc3ccc2n1O`: 41.3 µg/mL (≈ 195 µM).

Consider `O=C(c1ccco1)N(CCCn1ccnc1)c1nc2ccc(Br)cc2s1`, for which the IC90 was 0.74 µg/mL (≈ 1.72 µM). `COc1ccc(C)c2sc(N3CCc4ccccc4C3)nc12`: the IC90 was 11.1 µg/mL (≈ 35.6 µM). The same measure for `COc1ccc(Nc2nc(Nc3cccc(OC)c3)nc3nccnc23)cc1`: 9.86 µg/mL (≈ 26.3 µM); for `COc1ccccc1Nc1nc(NCc2ccco2)c2ccccc2n1`: 5.62 µg/mL (≈ 16.2 µM); for `COc1ccc(Cl)c2sc(N(CCCn3ccnc3)C(=O)Cc3ccccc3)nc12`: 1.65 µg/mL (≈ 3.74 µM). The same measure for `COc1ccccc1-c1nnc(NC(=O)c2sc3ccccc3c2Cl)o1`: 5.3 µg/mL (≈ 13.7 µM); for `COc1ccc2nc(NNC(=O)c3cc4ccccc4oc3=O)sc2c1`: 30.8 µg/mL (≈ 83.8 µM). In the case of `CCc1ccc(Cc2cnc(NC(=O)c3c(C)coc3C)s2)cc1`, the concentration for an effect of 90% (IC90) is 7.42 µg/mL (≈ 21.8 µM).

In the case of `COC(=O)CSCC(=O)Nc1nnc(-c2ccccc2C)s1`, the IC90 was 13.7 µg/mL (≈ 40.7 µM). Take `CC(C)(C)C(=O)Nc1nnc(-c2ccc(Br)cc2)o1`: the IC90 was less than 0.2 µg/mL. `O=C(CC(SCc1ccco1)c1cccc([N+](=O)[O-])c1)c1ccco1` (stereo unspecified): the IC90 was less than 0.2 µg/mL. On to `Cc1ccc(C)c(-c2nnc(NC(=O)c3ccccc3Cl)o2)c1`, for which the IC90 is 3.12 µg/mL (≈ 9.52 µM). For `O=C(Nc1nnc(-c2ccc(Br)cc2)o1)c1ccccc1F`, the IC90 is 4.4 µg/mL (≈ 12.1 µM).

In the case of `C=CCOC(=O)COc1ccc2c(-c3cc4ccccc4oc3=O)cc(=O)oc2c1`, the IC90 was 4.35 µg/mL (≈ 10.8 µM). The same measure for `O=C(N=Nc1c(O)[nH]c2ccccc12)c1cc(-c2cccc(OCc3ccccc3)c2)n[nH]1`: 20.2 µg/mL (≈ 46.2 µM). The value for `CC(C)(C)C(=O)Nc1nnc(-c2ccc3c(c2)CCCC3)o1` was 4.73 µg/mL (≈ 15.8 µM); that for `Fc1cccc2sc(Nc3nnc(-c4ccco4)o3)nc12` was 2.08 µg/mL (≈ 6.88 µM).
